Test results reported in patent US20260138969A1 (Korea Research Institute of Chemical Technology, priority 2023, published 2026).

Experiments:
[1] = test system: α-Syn transgenic Parkinson's disease mouse model; assay: α-Syn transgenic Parkinson's disease mouse model: microglial reduction (Iba-1); format: in vivo; conditions: 9 months of age; Memantine 10 mg/kg (G3), G4 2 mg/kg, G5 10 mg/kg, G7 2 mg/kg PO QD
Protocol: The test drug was administered once daily (QD) via oral administration (PO) with a solution of 5 ml/kg for 5 months from 4 months to 9 months of age. Motor behavior tests (beam test) and neurological scores (modified Irwin test) were performed at 4 months (before administration), 7 months, and 9 months. After the final behavioral test, tissue samples were taken. Weight was measured on the same day once a week from 4 months of age until the end of the study.
At 9 months of age, the measurement period ended, the mice were anesthetized, and then the experiment was terminated by cardiac puncture according to IACUC guidelines. Mice were perfused transcardially with 0.9% saline for tissue staining, followed by 4% paraformaldehyde until the mice were fixed. The brains were isolated and immobilized by soaking in 4% paraformaldehyde at 4° C. for 24 hours, followed by 30% sucrose added to PBS containing 0.02% sodium azide and stored at 4° C. for 3 days. Brain samples embedded in OCT compounds were sectioned to a thickness of 20 μm using Leica CM1950 (Leica Microsystems, Germany). The sections were stored at 4° C. in a preservation solution until they were stained by antibodies. […]
To assess microgliosis of the cortex, Iba-1-stained brain tissue was imaged in experimental example 10.5 using an immunofluorescence microscope (Olympus, BZ21) in Olympus. Each marker was manually counted to quantify Iba1.

[2] = MDR-MDCK cell membrane permeability assessment; format: in vitro ADME; conditions: dog; MDCK-MDR1 monolayer, 37° C., 2 hours
Protocol: (§1) MDCK-MDR1 cells (5×10^5 cells/mL) were incubated on a 24-transwell plate (Corning, NY, USA) for 4 days to measure permeability through a single layer of MDR-MDCK cells. The medium was replaced with a new medium every two days, and the electrical resistance between epithelial tissues (TEER) was measured using a Millicell® ERS-2 Volohmmeter (Merck KGaA, Darmstadt, Germany), and the cell membrane permeability test was performed after confirming that this value was greater than or equal to 300 Ohm.cm^2.
(§2) The apical and basolateral chambers were washed twice each in the order of Hanks' Balanced Salt Solution (HBSS) containing DPBS buffer and 10 mM Hydroxyethyl piperazine Ethane sulfonic acid (HEPES), and in the final washing step, HBSS was filled and maintained at a stable state at 37° C. for 30 minutes. After 30 minutes, the test material was instilled in each chamber and left at 37° C. for 2 hours, and the culture medium of the transferred layer was collected at 30-minute intervals, and the collected amount was supplemented with new HBSS.
(§3) The apparent permeability coefficient (Papp, cm/sec) was calculated using the following formula:
(§4) [formula] • Papp: Apparent permeability • dQ/dt: Permeability of the drug • A: Area of the filter membrane on which the cells are laid • C_0: Initial concentration of the drug
(§5) In addition, the Efflux ratio was calculated as follows: […]

MDR1 = assay: MDR-MDCK cell membrane permeability assessment; format: in vitro ADME; conditions: dog; MDCK-MDR1 monolayer
Protocol: as §1, §2, §3, §4, §5

[3] = test system: Reserpine-induced fibromyalgia rat model; assay: Reserpine-induced fibromyalgia rat model: pain (von Frey test); format: in vivo
Protocol: Reserpine-induced fibromyalgia model generation and drug administration were carried out on 6-week-old male SD rats divided into 6 groups as shown in Table 15 below: control group (G1), reserpine+delivery (G2), reserpine+gabapentin 50 mg/kg (G3), reserpine+Example 2 3 mg/kg (G4), 10 mg/kg (G5), and 30 mg/kg (G6). To create a rat fibromyalgia model, reserpine (Sigma-aldrich, 1 mg/kg) dissolved in 0.5% acetic acid was administered subcutaneously once for 3 days from 3 days before the start of the experiment. Beginning on Day 1, the once-daily (QD) delivery body, gabapentin, and embodiment 2 were administered intraperitoneally (IP) or orally (PO) 2 hours before the experiment was performed.
The right hind foot tactile response test (von Frey test) was performed 5 times (before the fibromyalgia model, and on the 1st, 2nd, 4th and 6th days after the model was generated). Before all behavioral tests, rats were accustomed to the environment for 30 minutes, and all experimenters performing behavioral tests were made blind to drug administration information. Before model generation, baseline measurements were performed by performing the von Frey test on all rats. The rat was placed on a wired mesh and placed in a transparent plastic box (20×20×14 cm), and the foot withdrawal threshold was measured by applying a von Frey filament (ascending weight: 0.4, 0.6, 1.4, 2, 4, 6, 8, and 15 g, North Coast) to the middle of the right hind foot to assess foot allodynia.

[4] = test system: SOD1 G93A transgenic ALS mouse model; assay: SOD1 G93A transgenic ALS mouse model: neurological score; format: in vivo; conditions: 30 mg/kg PO QD; from the 19th week of age onwards; vs G2
Protocol: (§6) The test drug was administered once daily (QD) via oral administration (PO) in a solution of 5 mL/kg from 8 weeks of age until death. Body weight was measured weekly, and disease score was measured daily from 8 weeks until the death of the animal. Motor behavior tests (grip strength) and neurological score tests (modified Irwin test) were performed at 9, 11, 13, 15, 17, 19, and 21 weeks, respectively. The survival of the mice was monitored daily.

[5] = Distribution in the mouse brain (plasma and brain AUC); format: in vivo
Protocol: The blood-brain barrier permeability in ICR mice was confirmed by oral administration of 10 mg/kg of test material. Male […] mice were fasted for 15 h prior to administration. The test material was administered at a dose of 10 mg/kg and a volume of 5 mL/kg, and the solvent composition was N-Methyl-2-pyrrolidone (NMP), Polyethylene glycol 400 (PEG 400), and distilled water (D.W) at a volume ratio of 10:40:50(%), respectively. After administration, blood and brain tissue samples were taken by sacrificing mice with carbon dioxide inhalation at each time point corresponding to 1, 4, and 8 hours. Whole blood was collected from the abdominal vena cava, and brain samples were collected after systemic perfusion with saline to remove as much blood as possible.
The distribution ratio in mouse plasma and brain was calculated by calculating the AUC after concentration quantification in each tissue.

[6] = test system: SOD1 G93A transgenic ALS mouse model; assay: SOD1 G93A transgenic ALS mouse model: survival; format: in vivo; conditions: 30 mg/kg PO QD from 8 weeks of age until death; vs G2
Protocol: as §6
The survival of the mice was monitored daily. The survival age of mice was recorded and labeled as Kaplan Meier survival plots.

[7] = oral 10 mg/kg, samples at 1, 4, 8 hours

Row | SMILES | number of IBA-1 positive cells in the cerebral cortex [1] | Papp A→B at 2 h [2] [×10⁻⁶ cm/s] | Papp B→A at 2 h [2] [×10⁻⁶ cm/s] | efflux ratio at 2 h (MDR1) | pain improvement efficacy (von Frey test) ([3]; 30 mg/kg PO QD) | sensitivity (foot withdrawal threshold, von Frey test) ([3]; gabapentin 50 mg/kg IP QD, Example 2 3, 10, 30 mg/kg PO QD, days 1, 2, 4, 6) | neurological scores [4] | Kp ([5]; male, brain/plasma, po, 10 mg/kg) | Aukinf brain [5, 7] [ug*h · g.] | Aukinf plasma [5, 7] [µg·mL·h] | survival rate [6]
1 | Cc1cc(F)c(C(=O)Nc2cccc(-n3nnc4c3CCC4)n2)cc1-n1cnc(C2CC2)c1 [Example 2, 5-(4-cyclopropyl-1H-imidazole-1-yl)-N-(6-(5,6-dihydrocyclopenta[d][1,2,3]triazole-1 (4H)-yl)pyridine-2-yl)-2-fluoro-4-methylbenzamide] | significantly reduced | 93.2 ± 11.2 | 99.1 ± 16.8 | 1.06 | significant efficacy | gradually improved over time | – | – | – | – | –
2 | Cc1cc(F)c(C(=O)Nc2cccc(-n3nnc4c3CCCC4)n2)cc1-n1cnc(C2CC2)c1 [Example 3, 5-(4-cyclopropyl-1H-imidazole-1-yl)-2-fluoro-4-methyl-N-(6-(4,5,6,7-tetrahydro-1H-benzo[d][1,2,3]triazole-1-yl)pyridine-2-yl)benzamide] | – | 67.3 ± 12.8 | 74.8 ± 12.3 | 1.13 | – | – | significant decrease in neurological scores compared to G2 | 0.021 | 6.61 ± 1.75 | 320 ± 74.8 | tendency to improve survival rate, although it was not significant compared to group G2
